13 molecules from patent publication US20140005103A1, “SULFONAMIDE DERIVATIVES AND METHODS OF USE THEREOF FOR IMPROVING THE PHARMACOKINETICS OF A DRUG” (Merck, Sharp & Dohme Corp., priority 2012, published 2014) can be followed below.

Assay [1] has as its target T1, CYP1A2 (Homo sapiens, UniProt P05177).
T1 construct: 0.1 mg/mL protein human liver microsomes (BD Gentest); tissue BD Gentest; host or cells: human liver microsomes
T1 sequence (P05177 1-516): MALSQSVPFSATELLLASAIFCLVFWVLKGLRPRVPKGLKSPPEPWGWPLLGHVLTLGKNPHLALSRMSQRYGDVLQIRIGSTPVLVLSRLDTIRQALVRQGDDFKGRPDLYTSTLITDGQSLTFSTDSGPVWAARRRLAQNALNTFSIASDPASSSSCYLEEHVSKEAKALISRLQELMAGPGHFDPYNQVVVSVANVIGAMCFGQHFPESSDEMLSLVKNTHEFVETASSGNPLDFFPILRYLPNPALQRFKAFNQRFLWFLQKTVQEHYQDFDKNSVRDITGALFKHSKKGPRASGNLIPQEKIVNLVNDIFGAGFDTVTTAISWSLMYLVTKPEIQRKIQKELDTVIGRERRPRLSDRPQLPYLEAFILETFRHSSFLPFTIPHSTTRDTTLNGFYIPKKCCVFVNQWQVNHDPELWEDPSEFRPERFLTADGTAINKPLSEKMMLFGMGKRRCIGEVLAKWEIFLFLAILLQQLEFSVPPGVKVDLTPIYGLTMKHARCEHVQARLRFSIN
Description: Cocktail CYP assay, phenacetin O-deethylation. Type of assay: in vitro ADME. The settings on record: human liver microsomes, 10 μM phenacetin; test concentrations up to 10 μM.

In assay [2] the target is T2, CYP2C19 (Homo sapiens, UniProt P33261).
T2 construct: 0.1 mg/mL protein human liver microsomes (BD Gentest); tissue BD Gentest; host or cells: human liver microsomes
The assay can be described thus: Cocktail CYP assay, mephenytoin 4'-hydroxylation. Format: in vitro ADME. Particulars: human liver microsomes, 30 μM mephenytoin; test concentrations up to 10 μM.

In assay [3] the target is T3, CYP2D6 (Homo sapiens, UniProt P10635).
T3 construct: 0.1 mg/mL protein human liver microsomes (BD Gentest); tissue BD Gentest; host or cells: human liver microsomes
The assay can be described thus: Cocktail CYP assay, dextromethorphan O-demethylation. Format: in vitro ADME. The settings on record: human liver microsomes, 5 μM dextromethorphan; test concentrations up to 10 μM.

For assay [4], the target named is T4, human CYP11B2 (Homo sapiens, UniProt P19099).
T4 construct: expressed in transfected cells
T4 sequence (P19099 25-503): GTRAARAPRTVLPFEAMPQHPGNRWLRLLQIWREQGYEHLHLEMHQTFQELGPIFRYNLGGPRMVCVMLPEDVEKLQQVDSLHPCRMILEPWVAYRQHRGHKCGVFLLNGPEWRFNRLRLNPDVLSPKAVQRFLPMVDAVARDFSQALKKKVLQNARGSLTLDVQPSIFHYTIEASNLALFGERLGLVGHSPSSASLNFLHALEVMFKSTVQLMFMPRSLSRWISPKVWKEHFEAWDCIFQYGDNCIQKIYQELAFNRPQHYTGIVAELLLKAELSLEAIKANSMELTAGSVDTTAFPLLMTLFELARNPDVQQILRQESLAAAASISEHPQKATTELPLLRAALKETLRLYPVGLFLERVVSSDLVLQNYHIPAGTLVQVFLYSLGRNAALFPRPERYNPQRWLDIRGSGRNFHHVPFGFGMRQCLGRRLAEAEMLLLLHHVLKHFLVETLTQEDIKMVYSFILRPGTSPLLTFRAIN
Description: IC50 vs CYP11B2 by aldosterone synthesis in V79 cells. Type of assay: cell-based. Particulars: V79 cells expressing human CYP11B2, 750 nM DOC, aldosterone HTRF; test concentrations 0.5-10000 nM. How it is done: Determination of IC50 vs CYP11B1/CYP11B2 by Measurement of Cortisol/Aldosterone Synthesis
This assay was performed in a standard 384-well plate design using cultured V79 cells stably expressing human CYP11B1 or human CYP11B2. Test compounds at 10 concentrations (for example, 10000, 3333.3, 1111.1, 370.4, 123.5, 41.2, 13.7, 4.6, 1.5 and 0.5 nM) were added in 384-well plate after the cell-seeding procedure. The incubation substrate contains 1500 nM RSS for CYP11B1 assay/750 nM DOC for CYP11B2 assay. The
Cortisol/Aldosterone production of cell culture supernatant was determined by Cortisol/Aldosterone HTRF kit after for about 15 hours incubation at RT (protect from light). IC50 values were calculated from the percent inhibition observed for each test compound at 10 concentrations.
The assay plate was read using Envision (Perkin Elmer, Waltham, Mass.) at 665 nm and 590 nm (using Filter Barcode of 217#, 205#; Mirror Barcode of 446#).
Data are analyzed using Assay Data Analyzer. All ratio data (665 nm/590 nm) are back calculated according to the standard curve, resulting in Cortisol/Aldosterone concentrations. IC50 values are reported as the Inflection Point (IP) of a four parameter fit of the titration data.
The following equation was used to calculate the % inhibition:
% Activity=100×{1−(Sample_back calculated Cortisol/Aldosterone concentration−LC_back calculated Cortisol/Aldosterone concentration)/(HC_back calculated Cortisol/Aldosterone concentration−LC_back calculated Cortisol/Aldosterone concentration)}

Where only a bound is given, the exact number is not on record here.

T3 sequence (P10635 whole entry): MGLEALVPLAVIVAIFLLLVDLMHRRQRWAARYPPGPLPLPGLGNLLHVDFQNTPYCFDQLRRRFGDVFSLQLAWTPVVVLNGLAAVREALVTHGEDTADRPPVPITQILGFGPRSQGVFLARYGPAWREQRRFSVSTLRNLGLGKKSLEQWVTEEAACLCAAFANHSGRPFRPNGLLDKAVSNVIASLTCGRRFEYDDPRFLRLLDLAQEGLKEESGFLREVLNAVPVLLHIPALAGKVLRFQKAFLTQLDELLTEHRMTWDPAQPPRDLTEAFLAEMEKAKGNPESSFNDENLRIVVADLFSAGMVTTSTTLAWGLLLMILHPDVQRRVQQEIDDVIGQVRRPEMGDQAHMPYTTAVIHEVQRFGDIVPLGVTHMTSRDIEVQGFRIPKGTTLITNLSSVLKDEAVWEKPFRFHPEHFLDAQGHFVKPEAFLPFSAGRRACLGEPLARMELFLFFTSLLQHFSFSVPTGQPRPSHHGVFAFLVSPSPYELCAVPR
T2 sequence (P33261 whole entry): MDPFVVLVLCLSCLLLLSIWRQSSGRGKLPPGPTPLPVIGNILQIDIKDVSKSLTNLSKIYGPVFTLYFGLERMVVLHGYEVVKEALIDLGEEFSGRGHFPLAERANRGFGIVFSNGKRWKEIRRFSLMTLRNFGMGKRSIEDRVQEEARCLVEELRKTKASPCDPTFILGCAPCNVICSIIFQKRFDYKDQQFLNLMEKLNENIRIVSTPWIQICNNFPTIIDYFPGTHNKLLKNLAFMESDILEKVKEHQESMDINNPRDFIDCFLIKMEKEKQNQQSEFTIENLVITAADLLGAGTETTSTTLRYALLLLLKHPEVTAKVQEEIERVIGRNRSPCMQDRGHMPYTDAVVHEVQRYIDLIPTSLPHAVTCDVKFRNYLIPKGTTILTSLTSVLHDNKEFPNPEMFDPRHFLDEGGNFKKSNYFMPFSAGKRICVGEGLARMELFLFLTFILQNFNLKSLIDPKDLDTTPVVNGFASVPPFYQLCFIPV

Take `C[C@H](c1ccc(F)cc1)n1cncc1CN1CCN(S(=O)(=O)c2cnc(N3CC[C@@H](N)[C@H](F)C3)s2)CC1` [Compound 11]: the IC50 in assay [1] was over 10 µM; in assay [2], 8.02 µM; in assay [3] it was over 10 µM; in assay [4], 3.39 µM.
Consider `C[C@H](c1ccc(F)cc1)n1cncc1CN1CCN(S(=O)(=O)c2cnc(N3CCN(C4CCN(C)CC4)CC3)s2)CC1` [Compound 9], for which the IC50 is over 10 µM in assay [1], over 10 µM in assay [2], over 10 µM in assay [3] and 3.92 µM in assay [4].
Consider `C[C@H](c1ccc(F)cc1)n1cncc1CN1CCN(S(=O)(=O)c2cnc(N3CCN4C[C@H](O)CC4(C)C3)s2)CC1` (stereo partly shown) [Compound 24], for which the IC50 in assay [1] is over 10 µM; in assay [2], over 10 µM; in assay [3] it was 3.2 µM; in assay [4], over 10 µM.
With `CN1CCN(c2ncc(S(=O)(=O)N3CCN(Cc4cncn4CCOc4ccc(F)cn4)CC3)s2)CC1` [Compound 33], the IC50 in assay [1] was over 10 µM; in assay [2], 7.51 µM; in assay [3] it was 4.8 µM; in assay [4], 1.61 µM.
For `C[C@H](c1ccc(F)cc1)n1cncc1CN1CCN(S(=O)(=O)c2cnc(N3CCN4C(=O)OC[C@H]4C3)s2)CC1` [Compound 26], in that order: over 10 µM, 7.21 µM, over 10 µM and 9.22 µM.
Consider `C[C@H](c1ccc(F)cc1)n1cncc1C1C(=O)OCC2CN(S(=O)(=O)c3cnc(Nc4ccc(C(F)(F)F)cn4)s3)CCN21` (stereo partly shown) [Compound 39], for which the half-maximal inhibitory concentration (IC50) in assay [1] worked out at 3.73 µM; in assay [2] it was 2.65 µM; in assay [3] it was 2.18 µM; in assay [4], 2.47 µM.
In the same order, the values of `C[C@H](c1ccc(F)cc1)n1cncc1CN1CCN(S(=O)(=O)c2cnc(N3CCN4C[C@H](O)C[C@@H]4C3)s2)CC1` [Compound 6] are over 10 µM, over 10 µM, over 10 µM and 3.88 µM.
In the same order, the values of `C[C@H](c1ccc(F)cc1)n1cnnc1CN1CCN(S(=O)(=O)c2cnc(N3CCN4C[C@H](O)C[C@H]4C3)s2)CC1` [Compound 42] are over 10 µM, over 10 µM, over 10 µM and over 10 µM.
For `C[C@H](c1ccc(F)cc1)n1cncc1CN1CCN(S(=O)(=O)c2cnc(N3CCN4C[C@H](O)C[C@H]4C3=O)s2)CC1` [Compound 18], in that order: over 10 µM, 2.16 µM, 5 µM and 4.58 µM.
For the molecule `CC1CN2C[C@H](O)C[C@H]2CN1c1ncc(S(=O)(=O)N2CCN(Cc3cncn3[C@H](C)c3ccc(F)cc3)CC2)s1` (single isomer, unassigned) [Compound 22], the concentration for half-maximal inhibition (IC50) amounted to 8.66 µM in assay [1], 2.29 µM in assay [2], 3.65 µM in assay [3] and 1.35 µM in assay [4].
Consider `C[C@H](c1ccc(F)cc1)n1cncc1CN1CCN(S(=O)(=O)c2cnc(N3CCNCC3)cn2)CC1` [Compound 30], for which the IC50 in assay [1] was over 10 µM; in assay [2] it was over 10 µM; in assay [3] it was 4.92 µM; in assay [4] it was 2.9 µM.
Regarding `C[C@H](c1ccc(F)cc1)n1cncc1CN1CCN(S(=O)(=O)c2cnc(N3CCC(S(C)(=O)=O)C3)s2)CC1` (stereo partly shown) [Compound 8], the IC50 in assay [1] was over 10 µM; in assay [2], over 10 µM; in assay [3], over 10 µM; in assay [4], 4 µM.
For the molecule `C[C@H](c1ccc(F)cc1)n1cncc1CN1CCN(S(=O)(=O)c2cnc(N3CCN4C[C@@H](CN)C[C@H]4C3)s2)CC1` [Compound 10], the half-inhibitory concentration (IC50) in assay [1], in assay [2], in assay [3] and in assay [4] was over 10 µM throughout.
